Consider 21 compounds from patent publication US10077284B2, “UBA5 inhibitors” (THE GOVERNING COUNCIL OF THE UNIVERSITY OF TORONTO, priority 2014, dated 2018).

What is called inhibition is the percentage by which the read-out fell short of the control. A low value points to a weak effect. The pIC50 is the IC50 on a negative log10 scale, so that one unit is a factor of ten.

pIC50: −log10 of the molar value. Where two headings read alike, the source gives them in different places.

The target of this experiment is T1, GST-UBA5 (Homo sapiens, UniProt Q9GZZ9).
T1 construct: made in house
T1 sequence (Q9GZZ9 whole entry): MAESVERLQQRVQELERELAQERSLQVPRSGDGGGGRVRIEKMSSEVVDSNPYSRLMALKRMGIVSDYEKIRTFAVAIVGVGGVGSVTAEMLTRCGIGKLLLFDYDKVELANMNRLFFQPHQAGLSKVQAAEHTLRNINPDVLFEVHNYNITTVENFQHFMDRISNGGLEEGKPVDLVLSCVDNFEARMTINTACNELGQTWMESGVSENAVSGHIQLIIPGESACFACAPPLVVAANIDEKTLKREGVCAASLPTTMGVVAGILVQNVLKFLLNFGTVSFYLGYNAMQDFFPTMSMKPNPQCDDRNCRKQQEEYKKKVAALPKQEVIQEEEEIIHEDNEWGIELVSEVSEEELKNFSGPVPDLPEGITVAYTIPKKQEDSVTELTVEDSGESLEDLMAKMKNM
Briefly: UBA5 transthiolation assay (UFC1-UFM1 conjugate formation). Type of experiment: biochemical. As to conditions: for inhibition at 0.1 µM: [Ligand] 0.1 μM; for inhibition at 0.1 µM / inhibition at 1 µM / inhibition at 5 µM / inhibition at 10 µM / inhibition at 50 µM / inhibition at 100 µM: n = 1; for inhibition at 1 µM: [Ligand] 1 μM; for inhibition at 5 µM: [Ligand] 5 μM; for inhibition at 10 µM: [Ligand] 10 μM; for inhibition at 50 µM: [Ligand] 50 μM; for inhibition at 100 µM: [Ligand] 100 μM; for pIC50: read-out: IC50.

The mark [1] stands for this setting: Table 1, transthiolation enzymatic assay.
Where [2] appears, read: Table 3, n = 3, tested 0.1-100 μM.

Procedure: Initial rates were recorded over 30 second time intervals from 0 to 2.5 min (normal kinetics) or 0 to 5 min (inhibition kinetics). Reactions were initiated by the addition of ATP and stopped using 4× Laemmli sample buffer (BioRad). The generated protein conjugates were separated on a 10% non-degenerating SDS-polyacrylamide gel (4-15% gels were used for the UAE transthiolaton assay), followed by Western blot analysis, with the exception of GST-UBA5 where protein bands were detected using Coomassie™ Brilliant Blue R-250 staining or Stain-Free gel imaging for the enzymatic assays (Bio-Rad). Transfers for the UAE and NAE immunoblots were performed using nitrocellulose membranes and blocking and blotting was performed as described above with cellular protein extracts. The His6-tagged Ub-UBCH6 complex was detected using an anti-His mouse monoclonal primary antibody (1:500, abcam). A rabbit anti-NEDD8 polyclonal primary antibody (1:500, BostonBiochem) was used for the detection of the E2-NEDD8 complexes. […] Inhibitory data was fit to a dose-response curve (Y=Bottom+(Top−Bottom)/(1+10^(X-Log IC50))) using GraphPad Prism 6.

Compound `Nc1ncnc2c1ncn2[C@@H]1O[C@H](C(=O)NCC(=O)N2CCNCCNCCNCC2)[C@@H](O)[C@H]1O` [Compound 1.1, (2S,3S,4R,5R)-5-(6-amino-9H-purin-9-yl)-3,4-dihydroxy-N-(2-oxo-2-(1,4,7,10-tetraazacyclododecan-1-yl)ethyl)tetrahydrofuran-2-carboxamide] yielded an inhibition at 0.1 µM of 0%, an inhibition at 1 µM of 25%, an inhibition at 5 µM of 41% and an inhibition at 10 µM of 31%. This compound also returned an inhibition at 50 µM of 4% and an inhibition at 100 µM of 26%.
As to `Nc1ncnc2c1ncn2[C@@H]1O[C@H](C(=O)NCCN2CCCNCCNCCCNCC2)[C@@H](O)[C@H]1O.[Zn+2]` [Compound 1.1.A.Cy.Zn, (2S,3S,4R,5R)—N-(2-(1,4,8,11-tetraazacyclotetradecan-1-yl)ethyl)-5-(6-amino-9H-purin-9-yl)-3,4-dihydroxytetrahydrofuran-2-carboxamide, zinc(II) trifluoromethanesulfonate], the pIC50 (Table 5, n = 3) was 4.70.
Still for that read-out and setting: the value for `Nc1ncnc2c1ncn2[C@@H]1O[C@H](C(=O)NCCN2CCNCCNCCNCC2)[C@@H](O)[C@H]1O.[Zn+2]` [Compound 1.1.A.Zn, (2S,3S,4R,5R)—N-(2-(1,4,7,10-tetraazacyclododecan-1-yl)ethyl)-5-(6-amino-9H-purin-9-yl)-3,4-dihydroxytetrahydrofuran-2-carboxamide, zinc(II) trifluoromethanesulfonate] was 5.12.
Consider `Nc1ncnc2c1ncn2[C@@H]1O[C@H](C(=O)NCC(=O)N2CCCNCCNCCCNCC2)[C@@H](O)[C@H]1O.[Zn+2]` [Compound 1.1.Cy.Zn, (2S,3S,4R,5R)-5-(6-amino-9H-purin-9-yl)-3,4-dihydroxy-N-(2-oxo-2-(1,4,8,11-tetraazacyclotetradecan-1-yl)ethyl)tetrahydrofuran-2-carboxamide, zinc(II) trifluromethanesulfonate], for which the pIC50 (Table 4, n = 3) was 5.37.
As for `Nc1ncnc2c1ncn2[C@@H]1O[C@H](C(=O)NCCC(=O)N2CCNCCNCCNCC2)[C@@H](O)[C@H]1O.[Zn+2]` [Compound 1.2.Zn, (2S,3S,4R,5R)-5-(6-amino-9H-purin-9-yl)-3,4-dihydroxy-N-(3-oxo-3-(1,4,7,10-tetraazacyclododecan-1-yl)propyl)tetrahydrofuran-2-carboxamide zinc (II) trifluoromethanesulfonate], the pIC50 under setting [1] is 5.05.
In turn, `Nc1ncnc2c1ncn2[C@@H]1O[C@H](C(=O)NCCCC(=O)N2CCNCCNCCNCC2)[C@@H](O)[C@H]1O` [Compound 1.3, (2S,3S,4R,5R)-5-(6-amino-9H-purin-9-yl)-3,4-dihydroxy-N-(4-oxo-4-(1,4,7,10-tetraazacyclododecan-1-yl)butyl)tetrahydrofuran-2-carboxamide] gave an inhibition at 0.1 µM of 24%, an inhibition at 1 µM of 10%, an inhibition at 5 µM of 17% and an inhibition at 10 µM of 28%. In addition, testing at 50 µM gave an inhibition of 11% and the inhibition at 100 µM came out at 0%.
For `Nc1ncnc2c1ncn2[C@@H]1O[C@H](C(=O)NCCCC(=O)N2CCNCCNCCNCC2)[C@@H](O)[C@H]1O.[Zn+2]` [Compound 1.3.Zn, (2S,3S,4R,5R)-5-(6-amino-9H-purin-9-yl)-3,4-dihydroxy-N-(4-oxo-4-(1,4,7,10-tetraazacyclododecan-1-yl)butyl)tetrahydrofuran-2-carboxamide zinc (II) trifluoromethanesulfonate], the pIC50 under setting [1] was 4.63.
Take `Nc1ncnc2c1ncn2[C@@H]1O[C@H](C(=O)NCCCCC(=O)N2CCNCCNCCNCC2)[C@@H](O)[C@H]1O.[Zn+2]` [Compound 1.4.Zn, (2S,3S,4R,5R)-5-(6-amino-9H-purin-9-yl)-3,4-dihydroxy-N-(5-oxo-5-(1,4,7,10-tetraazacyclododecan-1-yl)pentyl)tetrahydrofuran-2-carboxamide zinc (II) trifluoromethanesulfonate]: under setting [1], the negative-log IC50 (pIC50) was 5.28.
As to `Nc1ncnc2c1ncn2[C@@H]1O[C@H](C(=O)NCCCCCCN2CCNCCNCCNCC2)[C@@H](O)[C@H]1O.[Zn+2]` [Compound 1.5.A.Zn, (2S,3S,4R,5R)—N-(6-(1,4,7,10-tetraazacyclododecan-1-yl)hexyl)-5-(6-amino-9H-purin-9-yl)-3,4-dihydroxytetrahydrofuran-2-carboxamide, zinc(II) trifluromethanesulfonate], the negative logarithm of the IC50 (pIC50) (Table 5, n = 3) was 4.42.
Turning to `O=C(NCCCCCC(=O)N1CCNCCNCCNCC1)[C@H]1O[C@@H](n2cnc3c(N[C@H]4CCc5ccccc54)ncnc32)[C@H](O)[C@@H]1O.[Zn+2]` [Compound 1.5.An6.Zn, (2S,3S,4R,5R)-5-(6-(((S)-2,3-dihydro-1H-inden-1-yl)amino)-9H-purin-9-yl)-3,4-dihydroxy-N-(6-oxo-6-(1,4,7,10-tetraazacyclododecan-1-yl)hexyl)tetrahydrofuran-2-carboxamide, zinc(II) trifluoromethanesulfate], the negative-log IC50 (pIC50) (Table 6, n = 3) was 4.87.
Turning to `Nc1ncnc2c1ncn2[C@@H]1O[C@H](C(=O)NCCCCCC(=O)N2CCNCCNCCNCC2)[C@@H](O)[C@H]1O.O=S(=O)([O-])C(F)(F)F.O=S(=O)([O-])C(F)(F)F.[Cu+2]` [Compound 1.5.Cu, (2S,3S,4R,5R)—N-(6-(1,4,7,10-tetraazacyclododecan-1-yl)-6-oxohexyl)-5-(6-amino-9H-purin-9-yl)-3,4-dihydroxytetrahydrofuran-2-carboxamide copper (II) trifluoromethanesulfonate], the negative logarithm of the IC50 (pIC50) under setting [2] is below 4.00.
Consider `C1CNCCNCCNCCN1.[Zn+2]` [zinc(II) cyclen complex, reference compound], for which, where the note is “at 100 μM”, the “effect on the transthiolation reaction” value was “able to impede the transthiolation reaction”.
Take “(2S,3S,4R,5R)-5-(6-(((S)-2,3-dihydro-1H-inden-1-yl)amino)-9H-purin-9-yl)-3,4-dihydroxy-N-(6-oxo-6-(1,4,7,10-tetraazacyclododecan-1-yl)hexyl)tetrahydrofuran-2-carboxamide, copper(II) trifluoromethanesulfonate [Compound 1.5.An6.Cu]”: for the setting “Table 6, n = 3”, the pIC50 was 4.90.
Consider “(2S,3S,4R,5R)-5-(6-amino-9H-purin-9-yl)-3,4-dihydroxy-N-(2-oxo-2-(1,4,7,10-tetraazacyclododecan-1-yl)ethyl)tetrahydrofuran-2-carboxamide zinc (II) trifluromethanesulfonate [Compound 1.1.Zn]”, for which the negative-log IC50 (pIC50) under setting [1] is 4.98 and the negative-log IC50 (pIC50) (Table 5, n = 3) is 4.98.
Consider “(2S,3S,4R,5R)-5-(6-amino-9H-purin-9-yl)-3,4-dihydroxy-N-(2-oxo-2-(1,4,7,10-tetraazacyclododecan-1-yl)ethyl)tetrahydrofuran-2-carboxamide, copper(II) trifluromethanesulfonate [Compound 1.1.Cu]”, for which the pIC50 under setting [2] was below 4.00.
For “(2S,3S,4R,5R)-5-(6-amino-9H-purin-9-yl)-3,4-dihydroxy-N-(2-oxo-2-(1,4,8,11-tetraazacyclotetradecan-1-yl)ethyl)tetrahydrofuran-2-carboxamide, copper(II) trifluoromethanesulfonate [Compound 1.1.Cy.Cu]”, the negative-log IC50 (pIC50) (Table 4, n = 3) was 4.34.
“(2S,3S,4R,5R)-5-(6-amino-9H-purin-9-yl)-3,4-dihydroxy-N-(3-oxo-3-(1,4,7,10-tetraazacyclododecan-1-yl)propyl)tetrahydrofuran-2-carboxamide, copper(II) trifluromethanesulfonate [Compound 1.2.Cu]”: the pIC50 under setting [2] is 4.40.
Turning to “(2S,3S,4R,5R)-5-(6-amino-9H-purin-9-yl)-3,4-dihydroxy-N-(4-oxo-4-(1,4,7,10-tetraazacyclododecan-1-yl)butyl)tetrahydrofuran-2-carboxamide, copper(II) trifluromethanesulfonate [Compound 1.3.Cu]”, under setting [2], the pIC50 is below 4.00.
Same read-out and setting: the value for “(2S,3S,4R,5R)-5-(6-amino-9H-purin-9-yl)-3,4-dihydroxy-N-(5-oxo-5-(1,4,7,10-tetraazacyclododecan-1-yl)pentyl)tetrahydrofuran-2-carboxamide, copper(II) trifluoromethanesulfonate [Compound 1.4.Cu]” was 4.41.
With “(2S,3S,4R,5R)—N-(2-(1,4,7,10-tetraazacyclododecan-1-yl)ethyl)-5-(6-amino-9H-purin-9-yl)-3,4-dihydroxytetrahydrofuran-2-carboxamide, copper(II) trifluromethanesulfonate [Compound 1.1.A.Cu]”, for the setting “Table 5, n = 3”, the pIC50 was 4.68.
“(2S,3S,4R,5R)—N-(6-(1,4,7,10-tetraazacyclododecan-1-yl)hexyl)-5-(6-amino-9H-purin-9-yl)-3,4-dihydroxytetrahydrofuran-2-carboxamide, copper(II) trifluromethanesulfonate [Compound 1.5.A.Cu]”: the pIC50 (Table 5, n = 3) is below 4.00.
